According to patent publication US20220213138A1, “CYCLIC COMPOUNDS AND METHODS OF MAKING AND USING” (UNIVERSITY OF HONG KONG, priority 2019, published 2022):
Where two headings read alike, the source gives them in different places. Positions of bridges follow the written chain, without caps; N, C: chain ends. No end group written: not given here.

Key:
[1] = crosslinker bond
Caco2 cells = assay: Fluorescence confocal imaging analysis of Caco2 cells; format: cell-based; settings: 1 μL 10 mM peptide in 1 mL DMEM with 10% FBS, 2 hours at 37° C.
Method: Caco2 cell line was provided by Prof. Jiang Xia (CUHK). A431 and HT116 cell lines were from Prof. Chiming Che (HKU). Caco2, A431 cells were cultured in DMEM supplemented with 10% FBS. HT116 cells were cultured in RPMI 1640 medium supplemented with 10% FBS. All cells were cultured in a humidified incubator at 37° C. with 5% CO2 supplemented. Cell culture medium and FBS were purchased from Gibco. Hoechst 33342 and DiI were purchased from Beyotime Biotechnology. Flow cytometry tubes were purchased from BD pharmacology.
Caco2 cells were cultured with the confluence of 60% in the 35 mm glass-bottom dish overnight. 1 mL fresh DMEM with 10% FBS was added to the dish. 1 μL 10 mM cyclic peptide (Ac-CPIEDRPMK-CONH2)-Fluorescein (cCK9′-F) (SEQ ID NO:27) in DMSO was added into the medium for 2 hours at 37° C. After two hours' incubation, the supernatant was discarded and the cells were washed with PBS for three times. The cells were replenished with PBS. Hoechst 33342 (final concentration: 2.5 μg/mL) and DiI (final concentration: 5 μM) were added into PBS for 10 min at room temperature. The supernatant was discarded. The cells were washed with PBS for three times and replenished with 3% polyaldehyde for imaging. All images were captured and processed via Leica Application Suit X at ×63 oil objective (Leica).

[2] = test system: poorly differentiated colon carcinoma cells; settings: Kelly, et al., Neoplasia 2003; cited from earlier work
[3] = 24-membered ring, OPA, PBS pH 7.4/DMSO
[4] = 21-membered ring, OPA, PBS pH 7.4/DMSO
[5] = 27-membered ring, OPA, PBS pH 7.4/DMSO
[6] = crosslinker bond, 21-membered ring, OPA, then DMAC, PBS pH 7.4/DMSO, 2 steps
[7] = crosslinker bond, 24-membered ring, OPA, then DMAC, PBS pH 7.4/DMSO, 2 steps
[8] = crosslinker bond, 27-membered ring, OPA, then DMAC, PBS pH 7.4/DMSO, 2 steps

Work on Ac-ACFALPKG-CONH2 yielded a ring closure, conversion [1, 3] of 92.5%.
For Ac-AKVTMTCSAS-CONH2, the ring closure, conversion [1, 3] was 99%.
Work on Ac-CAHNLTHAK-CONH2 yielded a ring closure, conversion ([1]; 33-membered ring, OPA) of 98%.
Substance Ac-CDWLPK-CONH2 has a ring closure, conversion [1, 3] of 89.1%.
Ac-CHHALTHAK-CONH2 gave a ring closure, conversion ([1]; 33-membered ring, OPA) of 98%.
Work on Ac-ENPECILDKHVQRVM-CONH2 yielded a ring closure, conversion ([1]; 21-membered ring, OPA) of 98% and a ring closure, conversion [1, 4] of 93.6%.
Work on Ac-GAQCAFLK-CONH2 yielded a ring closure, conversion [1, 4] of 83.3%.
Ac-KAAAAAACF-CONH2 gave a ring closure, conversion ([1]; 30-membered ring, OPA) of 98%.
Ac-KAAAAACF-CONH2 showed a ring closure, conversion ([1]; 27-membered ring, OPA) of 98%.
Ac-KAAAAACH-CONH2 gave a ring closure, conversion [1, 5] of 98%.
Substance Ac-KAAAACF-CONH2 has a ring closure, conversion ([1]; 24-membered ring, OPA) of 93%.
Ac-KAAAACH-CONH2 gave a ring closure, conversion ([1]; 24-membered ring, OPA, PBS pH 7.4/DMSO, 0.53 mM) of 92%.
Ac-KAAACF-CONH2 showed a ring closure, conversion ([1]; 21-membered ring, OPA) of 98%.
In the case of Ac-KAAACH-CONH2, the ring closure, conversion [1, 4] is reported as 98%.
In the case of Ac-KGEAFQC-CONH2, the ring closure, conversion [1, 5] is reported as 90.9%.
Ac-NYRWRCKN-CONH2 showed a ring closure, conversion ([1]; 12-membered ring, OPA, PBS pH 7.4/DMSO) of 98%.
In the case of “Cyclo-(Ac-CPIEDRPMK-CONH2)-Fluorescein (Ac-CPIEDRPMK-NH2; linker (positions not given here) via OPA; also: fluorescein conjugate, site not given here) [cCK9′-F]”, the “imaging overlap with cell membrane dye (DiI)” value (Caco2 cells) is reported as “overlapped very well with cell membrane dye (DiI)”.
For NH2-AAAAACF-CONH2, the ring closure, conversion ([1]; 20-membered ring, OPA) was 98%.
Work on NH2-AAAACF-CONH2 yielded a ring closure, conversion ([1]; 17-membered ring, OPA) of 96%.
With NH2-AAACF-CONH2 the ring closure, conversion ([1]; 14-membered ring, OPA) was 98%.
“Phallodin analog (cyclo-(Dap-Ala-Hyp-Cys-(D)thr-Ala-Glu))” gave a ring closure, conversion ([1]; 15-membered ring) of 86.4%.
For bicyclo-(CNSTKNLTFAMRSSGDYGEV), the ring closure, conversion ([1]; 21-membered ring, OPA) was 90%.
With bicyclo-(CNSTKNLTFAMRSSGDYGEV)-DMAC the ring closure, yield after HPLC [6] was 69%.
Substance bicyclo-(CSQGTFTSDYSKYLDSRRAQ) has a ring closure, conversion ([1]; 36-membered ring, OPA) of 94%.
With bicyclo-(CSQGTFTSDYSKYLDSRRAQ)-DMAC the ring closure, yield after HPLC (crosslinker bond, 36-membered ring, OPA, then DMAC, PBS pH 7.4/DMSO, 2 steps) was 65%.
With bicyclo-(CSSLDEPGRGGFSSESKV) the ring closure, conversion ([1]; 15-membered ring, OPA) was 98%.
In the case of bicyclo-(CSSLDEPGRGGFSSESKV)-DMAC, the ring closure, yield after HPLC (crosslinker bond, 15-membered ring, OPA, then DMAC, PBS pH 7.4/DMSO, 2 steps) is reported as 43%.
In the case of bicyclo-(Dap-A-Hyp-C-t-A-E)-DMAC, the ring closure, yield after HPLC (crosslinker bond, 15-membered ring, 2 steps) is reported as 65%.
In the case of cyclo-(Ac-ACFALPKG-CONH2)-DMAC, the ring closure, yield after HPLC [7] is reported as 48%.
Work on cyclo-(Ac-AKVTMTCSAS-CONH2)-DMAC yielded a ring closure, yield after HPLC [7] of 32%.
Substance cyclo-(Ac-CDWLPK-CONH2)-DMAC has a ring closure, yield after HPLC [7] of 31.9%.
With cyclo-(Ac-ENPECILDKHVQRVM-CONH2)-DMAC the ring closure, yield after HPLC [6] was 35%.
For cyclo-(Ac-GAQCAFLK-CONH2)-DMAC, the ring closure, yield after HPLC [6] was 38%.
cyclo-(Ac-KAAAAACH-CONH2)-DMAC gave a ring closure, yield after HPLC [8] of 52.2%.
Substance cyclo-(Ac-KAAAACH-CONH2)-DMAC has a ring closure, yield after HPLC (crosslinker bond, 24-membered ring, OPA, then DMAC, PBS pH 7.4/DMSO, 0.53 mM, 2 steps) of 34%.
With cyclo-(Ac-KAAACH-CONH2)-DMAC the ring closure, yield after HPLC [6] was 47.3%.
For cyclo-(Ac-KGEAFQC-CONH2)-DMAC, the ring closure, yield after HPLC [8] was 36.6%.
In the case of cyclo-(Ac—NYRWRCKN-CONH2)-DMAC, the ring closure, yield after HPLC (crosslinker bond, 12-membered ring, OPA, then DMAC, PBS pH 7.4/DMSO, 2 steps) is reported as 32%.
Substance cyclo-(CNSTKNLTFAMRSSGDYGEV) has a ring closure, conversion [1, 4] of 89.2% and a ring closure, yield after HPLC (amide bond, 60-membered ring, NaNO2, MPAA, TCEP (NCL), 6 M Gn.HCl/0.2 M phosphate buffer, 0.37 mM) of 31%.
For “cyclo-(CPIEDRPMC) (disulfide 1-9 (inferred)) [CK-9]”, the cell targeting [2] is given as “specifically target poorly differentiated colon carcinoma cells”.
cyclo-(CSQGTFTSDYSKYLDSRRAQ) gave a ring closure, conversion ([1]; 36-membered ring, OPA, PBS pH 7.4/DMSO) of 71.4% and a ring closure, yield after HPLC (amide bond, 60-membered ring, NaNO2, MPAA, TCEP (NCL), 6 M Gn.HCl/0.2 M phosphate buffer, 0.2 mM) of 71.7%.
In the case of cyclo-(CSSLDEPGRGGFSSESKV), the ring closure, conversion ([1]; 15-membered ring, OPA, PBS pH 7.4/DMSO) is reported as 86.9% and the ring closure, yield after HPLC (amide bond, 54-membered ring, NaNO2, MPAA, TCEP (NCL), 6 M Gn.HCl/0.2 M phosphate buffer, 0.14 mM) is reported as 68.8%.
